Measured values as given in US8772480B2, “Inhibitors of PI3 kinase and/or mTOR” (priority 2009, dated 2014).

What was measured:
[1] = test system: phosphorylation of Akt at Serine 473 in U87 MG cells; test: cells; conditions: Homo sapiens, U-87 MG, 2 h, read-out: U87Cell IC50, pAkt (Ser 473), U87 MG cells, two hours with compound
PI3Kα = PI3Kα (Homo sapiens (Human), UniProt P42336); conditions: read-out: PI3Kα AlphaScreen ® Ki
Chain of PI3Kα (P42336 whole entry): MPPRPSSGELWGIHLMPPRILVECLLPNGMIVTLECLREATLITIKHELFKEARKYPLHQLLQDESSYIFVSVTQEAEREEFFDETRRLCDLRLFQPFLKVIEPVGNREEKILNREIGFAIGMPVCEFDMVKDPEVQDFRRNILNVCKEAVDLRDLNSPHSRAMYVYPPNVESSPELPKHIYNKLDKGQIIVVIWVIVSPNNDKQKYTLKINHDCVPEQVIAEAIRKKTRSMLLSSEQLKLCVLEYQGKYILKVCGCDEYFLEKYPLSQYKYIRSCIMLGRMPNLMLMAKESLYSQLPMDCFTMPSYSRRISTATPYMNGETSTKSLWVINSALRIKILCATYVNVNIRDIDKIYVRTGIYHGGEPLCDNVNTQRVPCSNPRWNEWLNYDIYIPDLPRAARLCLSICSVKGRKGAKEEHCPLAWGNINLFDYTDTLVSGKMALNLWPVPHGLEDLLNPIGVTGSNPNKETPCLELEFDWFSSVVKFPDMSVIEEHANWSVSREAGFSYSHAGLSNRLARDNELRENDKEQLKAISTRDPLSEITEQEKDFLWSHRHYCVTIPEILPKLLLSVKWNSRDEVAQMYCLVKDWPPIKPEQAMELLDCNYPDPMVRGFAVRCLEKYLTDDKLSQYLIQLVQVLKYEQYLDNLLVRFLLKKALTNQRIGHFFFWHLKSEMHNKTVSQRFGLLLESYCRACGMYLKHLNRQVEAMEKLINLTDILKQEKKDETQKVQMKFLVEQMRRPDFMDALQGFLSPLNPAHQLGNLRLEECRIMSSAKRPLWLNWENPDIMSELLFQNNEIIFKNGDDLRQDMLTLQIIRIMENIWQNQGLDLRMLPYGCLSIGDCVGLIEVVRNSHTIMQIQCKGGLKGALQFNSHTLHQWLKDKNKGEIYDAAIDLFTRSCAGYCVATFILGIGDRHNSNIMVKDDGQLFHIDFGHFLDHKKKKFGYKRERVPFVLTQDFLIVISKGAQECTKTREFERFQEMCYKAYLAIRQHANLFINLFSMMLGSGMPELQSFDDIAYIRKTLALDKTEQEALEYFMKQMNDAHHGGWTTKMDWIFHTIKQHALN
Chain of PI3Kα (P27986 whole entry partner): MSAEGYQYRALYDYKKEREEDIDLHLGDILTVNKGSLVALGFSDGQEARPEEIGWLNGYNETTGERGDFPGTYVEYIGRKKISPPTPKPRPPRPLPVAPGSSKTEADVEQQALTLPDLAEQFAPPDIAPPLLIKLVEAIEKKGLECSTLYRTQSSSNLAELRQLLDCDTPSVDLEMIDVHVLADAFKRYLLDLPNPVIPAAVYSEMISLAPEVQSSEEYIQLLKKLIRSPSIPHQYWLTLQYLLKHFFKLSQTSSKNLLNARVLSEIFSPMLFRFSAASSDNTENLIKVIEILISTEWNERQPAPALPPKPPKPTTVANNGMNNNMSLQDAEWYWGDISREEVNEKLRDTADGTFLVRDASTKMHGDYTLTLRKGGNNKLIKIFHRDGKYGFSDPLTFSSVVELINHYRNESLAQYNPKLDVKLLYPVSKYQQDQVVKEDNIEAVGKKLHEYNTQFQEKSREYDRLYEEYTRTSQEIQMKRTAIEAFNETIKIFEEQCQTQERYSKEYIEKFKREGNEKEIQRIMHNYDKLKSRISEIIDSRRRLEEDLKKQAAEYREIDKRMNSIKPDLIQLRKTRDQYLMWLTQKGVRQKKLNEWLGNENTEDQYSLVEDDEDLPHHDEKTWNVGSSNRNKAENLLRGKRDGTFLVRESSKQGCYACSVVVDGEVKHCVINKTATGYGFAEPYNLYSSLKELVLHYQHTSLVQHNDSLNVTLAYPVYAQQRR

Row | Structure (SMILES) | IC50 [1] [µM] | Ki (PI3Kα) [µM]
1 | Cc1nc(N)nc(-c2cc(CN3CCN(S(C)(=O)=O)CC3)cnc2Nc2cccc3[nH]ncc23)n1 [Example 36, N-(3-(4-amino-6-methyl-1,3,5-triazin-2-yl)-5-((4-(methylsulfonyl)piperazin-1-yl)methyl)pyridin-2-yl)-1H-indazol-4-amine] | 0.022 | 0.004
2 | COc1ncc(Nc2nc(-c3ccncc3)ccc2-c2nc(C)nc(N)n2)cc1F [Example 175, 5-(4-Amino-6-Methyl-1,3,5-Triazin-2-yl)-N-(5-Fluoro-6-Methoxypyridin-3-yl)-2,4′-Bipyridin-6-Amine] | > 10 | 0.063
3 | Cc1nc(N)nc(-c2cc(C(C)N3CCOCC3)cnc2Nc2ccc3scnc3c2)n1 (stereo not shown) [Example 288, N-(3-(4-Amino-6-Methyl-1,3,5-Triazin-2-yl)-5-(1-Morpholinoethyl)Pyridin-2-yl)Benzo[D]Thiazol-5-Amine] | 0.033 | 0.045
4 | Cc1nc(N)nc(-c2cc(F)cnc2Nc2cncc(F)c2)n1 [Example 186, 4-(5-Fluoro-2-(5-Fluoropyridin-3-Ylamino)Pyridin-3-yl)-6-Methyl-1,3,5-Triazin-2-Amine] | > 10 | 0.851
5 | COc1ccc(Nc2ncc(C(=O)N3CCOCC3)cc2-c2nc(C)nc(N)n2)cn1 [Example 151, 4-(2-((6-Methoxy-3-Pyridinyl)Amino)-5-(4-Morpholinylcarbonyl)-3-Pyridinyl)-6-Methyl-1,3,5-Triazin-2-Amine] | 0.143 | 0.064
6 | Cc1nc(N)nc(-c2cc(CN3CCN(S(C)(=O)=O)CC3)cnc2Nc2cnc(O)c(F)c2)n1 [Example 161, 5-(3-(4-Amino-6-Methyl-1,3,5-Triazin-2-yl)-5-((4-(Methylsulfonyl)Piperazin-1-yl)Methyl)Pyridin-2-Ylamino)-3-Fluoropyridin-2-ol] | 0.073 | 0.036
7 | Cc1nc(N)nc(-c2cccnc2Nc2cc[nH]c(=O)c2)n1 [Example 263, 4-(3-(4-Amino-6-Methyl-1,3,5-Triazin-2-yl)Pyridin-2-Ylamino)Pyridin-2(1H)-One] | > 10 | 0.643
8 | Cc1nc(N)nc(-c2cc(Cl)cnc2Nc2cncc(F)c2)n1 [Example 257, 4-(5-Chloro-2-(5-Fluoropyridin-3-Ylamino)Pyridin-3-yl)-6-Methyl-1,3,5-Triazin-2-Amine] | > 10 | 0.426
9 | COc1ccc(Nc2ncc([C@H](O)C(F)(F)F)cc2-c2nc(C)nc(N)n2)cn1 [Example 323, (S)-1-(5-(4-amino-6-methyl-1,3,5-triazin-2-yl)-6-(6-methoxypyridin-3-ylamino)pyridin-3-yl)-2,2,2-trifluoroethanol] | 0.046 | 0.034
10 | COc1ccc(Nc2ncc(CN3CCSCC3)cc2-c2nc(C)nc(N)n2)cn1 [Example 201, 4-(2-(6-Methoxypyridin-3-Ylamino)-5-(Thiomorpholinomethyl)Pyridin-3-yl)-6-Methyl-1,3,5-Triazin-2-Amine] | 0.066 | 0.094
11 | Cc1ccc(-c2nc(C)nc(N)n2)c(Nc2cncc(F)c2)n1 [Example 200, 4-(2-(5-Fluoropyridin-3-Ylamino)-6-Methylpyridin-3-yl)-6-Methyl-1,3,5-Triazin-2-Amine] | > 10 | 0.18
12 | Cc1nc(N)nc(-c2cc(CN3CCN(S(C)(=O)=O)CC3)cnc2Nc2ccc3scnc3c2)n1 [Example 240, N-(3-(4-Amino-6-Methyl-1,3,5-Triazin-2-yl)-5-((4-(Methylsulfonyl)Piperazin-1-yl)Methyl)Pyridin-2-yl)Benzo[D]Thiazol-5-Amine] | 0.043 | 0.008
13 | COc1ccc(Nc2ncc(C(C)N3CCN(S(C)(=O)=O)CC3)cc2-c2nc(C)nc3[nH]cnc23)cn1 (stereo not shown) [Example 140, N-(6-methoxypyridin-3-yl)-3-(2-methyl-9H-purin-6-yl)-5-(1-(4-(methylsulfonyl)piperazin-1-yl)ethyl)pyridin-2-amine] | 0.034 | 0.006
14 | COCCOc1ccc(-c2nc(C)nc(N)n2)c(Nc2cnc(OC)c(F)c2)n1 [Example 259, 4-(2-(5-Fluoro-6-Methoxypyridin-3-Ylamino)-6-(2-Methoxyethoxy)Pyridin-3-yl)-6-Methyl-1,3,5-Triazin-2-Amine] | 0.19 | 0.081
15 | Cc1nc(-c2cc(C(C)N3CCOCC3)cnc2Nc2cnc(Cl)c(NS(C)(=O)=O)c2)c2nc[nH]c2n1 (stereo not shown) [Example 339, N-(2-Chloro-5-(3-(2-Methyl-9H-Purin-6-yl)-5-(1-Morpholinoethyl)Pyridin-2-Ylamino)Pyridin-3-yl)Methanesulfonamide] | 0.045 | 0.003
16 | COc1ncc(Nc2ncc(C(C)(C)N3CCOCC3)cc2-c2nc(C)nc(N)n2)cc1F [Example 281, 4-(2-(5-Fluoro-6-Methoxypyridin-3-Ylamino)-5-(2-Morpholinopropan-2-yl)Pyridin-3-yl)-6-Methyl-1,3,5-Triazin-2-Amine] | 0.016 | 0.006

Row | Structure (SMILES) | IC50 [1] [µM] | Ki (PI3Kα) [µM]
17 | COCCNC(=O)c1cnc(Nc2ccc(OC)nc2)c(-c2nc(C)nc(N)n2)c1 [Example 153, 5-(4-Amino-6-Methyl-1,3,5-Triazin-2-yl)-N-(2-Methoxyethyl)-6-((6-Methoxy-3-Pyridinyl)Amino)-3-Pyridinecarboxamide] | 0.11 | 0.021
18 | COc1ccc(Nc2ncc(-c3cn[nH]c3)cc2-c2nc(C)nc(N)n2)cn1 [Example 250, 4-(2-(6-Methoxypyridin-3-Ylamino)-5-(1H-Pyrazol-4-yl)Pyridin-3-yl)-6-Methyl-1,3,5-Triazin-2-Amine] | 0.046 | 0.011
19 | COc1ccc(Nc2nc(N3CCCCC3)ncc2-c2nc(C)nc(N)n2)cn1 [Example 123, 4-(4-(6-methoxypyridin-3-ylamino)-2-(piperidin-1-yl)pyrimidin-5-yl)-6-methyl-1,3,5-triazin-2-amine] | > 10 | 0.102
20 | COc1ccc(Nc2ncc(CN3CCOC[C@@H]3C)cc2-c2nc(C)nc(N)n2)cn1 [Example 219, (S)-4-(2-(6-Methoxypyridin-3-Ylamino)-5-((3-Methylmorpholino)Methyl)Pyridin-3-yl)-6-Methyl-1,3,5-Triazin-2-Amine] | 0.295 | 0.093
21 | Cc1nc(N)nc(-c2cc([C@@H](C)N3CCN(S(C)(=O)=O)C[C@@H]3C)cnc2Nc2ccc(Cl)nc2)n1 [Example 363, 4-(2-(6-Chloropyridin-3-Ylamino)-5-((R)-1-((S)-2-Methyl-4-(Methylsulfonyl)Piperazin-1-yl)Ethyl)Pyridin-3-yl)-6-Methyl-1,3,5-Triazin-2-Amine] | 0.031 | 0.015
22 | COc1ncc(Nc2ncc(CN3CCOCC3)cc2-c2nc(C)nc(N)n2)cc1F [Example 130, 4-(2-(5-fluoro-6-methoxypyridin-3-ylamino)-5-(morpholinomethyl)pyridin-3-yl)-6-methyl-1,3,5-triazin-2-amine] | 0.014 | 0.02
23 | COc1ccc(Nc2ncc(C(N)C(F)(F)F)cc2-c2nc(C)nc(N)n2)cn1 (stereo not shown) [Example 324, 4-(5-(1-Amino-2,2,2-Trifluoroethyl)-2-(6-Methoxypyridin-3-Ylamino)Pyridin-3-yl)-6-Methyl-1,3,5-Triazin-2-Amine] | 0.106 | 0.059
24 | Cc1cncc(Nc2ncccc2-c2nc(C)nc(N)n2)c1 [Example 174, 4-Methyl-6-(2-(5-Methylpyridin-3-Ylamino)Pyridin-3-yl)-1,3,5-Triazin-2-Amine] | > 10 | 0.455
25 | COc1ncc(Nc2ncc(C(O)C(C)(C)O)cc2-c2nc(C)nc(N)n2)cc1F (stereo not shown) [Example 347, 1-(5-(4-Amino-6-Methyl-1,3,5-Triazin-2-yl)-6-(5-Fluoro-6-Methoxypyridin-3-Ylamino)Pyridin-3-yl)-2-Methylpropane-1,2-Diol] | 0.108 | 0.075
26 | COc1ncc(Nc2ncc([C@@H](C)N3CCN(S(C)(=O)=O)C[C@@H]3C)cc2-c2nc(C)nc(N)n2)cn1 [Example 362, 4-(2-(2-Methoxypyrimidin-5-Ylamino)-5-((R)-1-((S)-2-Methyl-4-(Methylsulfonyl)Piperazin-1-yl)Ethyl)Pyridin-3-yl)-6-Methyl-1,3,5-Triazin-2-Amine] | 0.01 | 0.002
27 | Cc1nc(N)nc(-c2cc(CN3CCN(S(C)(=O)=O)CC3)cnc2Nc2ccc3ncoc3c2)n1 [Example 39, N-(3-(4-Amino-6-Methyl-1,3,5-Triazin-2-yl)-5-((4-(Methylsulfonyl)Piperazin-1-yl)Methyl)Pyridin-2-yl)Benzo[D]Oxazol-6-Amine] | 0.046 | 0.055
28 | COc1ncc(Nc2ncc(C(C)(C)O)cc2-c2cc(N)nc(C)n2)cc1F [Example 345, 2-(5-(6-Amino-2-Methylpyrimidin-4-yl)-6-(5-Fluoro-6-Methoxypyridin-3-Ylamino)Pyridin-3-yl)Propan-2-ol] | 0.035 | 0.013
29 | Cc1nc(N)cc(-c2nccnc2Nc2cnc(Cl)c(NS(C)(=O)=O)c2)n1 [Example 307, N-(5-((3-(6-amino-2-methyl-4-pyrimidinyl)-2-pyrazinyl)amino)-2-chloro-3-pyridinyl)methanesulfonamide] | > 10 | 0.26
30 | COc1ncc(Nc2ncc(C(C)O)cc2-c2nc(C)nc(N)n2)cc1F (stereo not shown) [Example 349, 1-(5-(4-Amino-6-Methyl-1,3,5-Triazin-2-yl)-6-(5-Fluoro-6-Methoxypyridin-3-Ylamino)Pyridin-3-yl)Ethanol] | 0.013 | 0.059
31 | COc1ccc(Nc2ncc(CNC(C)C)cc2-c2nc(C)nc3[nH]cnc23)cn1 [Example 135, 5-((isopropylamino)methyl)-N-(6-methoxypyridin-3-yl)-3-(2-methyl-9H-purin-6-yl)pyridin-2-amine] | 0.435 | 0.12
32 | Cc1nc(N)nc(-c2cc(CN3CCN(S(C)(=O)=O)CC3)cnc2Nc2cncnc2)n1 [Example 38, 4-Methyl-6-(5-((4-(Methylsulfonyl)Piperazin-1-yl)Methyl)-2-(Pyrimidin-5-Ylamino)Pyridin-3-yl)-1,3,5-Triazin-2-Amine] | 0.145 | 0.017
